From patent US10617118B2, “Low foam surfactant composition and methods of making the same” (Momentive Performance Materials Inc., priority 2015, dated 2020)

Tests used:
[1] = test system: Velvetleaf (Abutilion theophrasti); experiment: Effect of adjuvant on glyphosate-IPA efficacy on velvetleaf (spray application); format: in vivo; conditions: 1.0 wt % Gly-IPA, adjuvant 0.1 wt %, 100 L/ha, simulated rain 2 hours after treatment, visual scale of 0-100%
Description: Velvetleaf plants were grown from seed indoor, under full sunlight intensity lamps, in individual pots, and then thinned to one plant per pot. Plants were fertilized as necessary (NPK 20-20-20). Glyphosate spray applications were applied when the plants reached the 3-4 true leaf stage.
Velvetleaf was treated with 1.0 wt % Gly-IPA, with and without adjuvant, at a spray volume equivalent to 100 L/ha. When adjuvant was used, it was included in the spray at 0.1 wt %. Applications were made using a track sprayer with a TeeJet 8002 nozzle. Simulated rain (2.5 cm) was applied 2 hours after treatment. Glyphosate efficacy was determined 7 and 14 days after treatment (DAT). using a visual scale of 0-100%, where 0 indicates no effect and 100 indicates total weed control.

[2] = Spreading: spread diameter of 10 μL drop on polystyrene Petri-dish; format: physicochemical; conditions: Table 11, after 30 seconds
Description: Spreading was determined using between 0.1% and 0.4% (actives) surfactant. Solutions were prepared in Milli-Pore water (deionized) where a 10 μL drop was placed on a polystyrene surface (Petri-dish) and the spread diameter, in mm is determined after 30 seconds.

CC(C)N.O=C(O)CNCP(=O)(O)O [None, glyphosate-isopropylamine]
Glyphosate-IPA efficacy on velvetleaf, 7 DAT ([1]; 7 DAT): 33% | Glyphosate-IPA efficacy on velvetleaf, 14 DAT ([1]; 14 DAT): 37%

Triton X-100
Spread Diameter (mm) 0.2 Wt % [2]: 7 mm
